Measured values from the NIST ThermoML archive (doi:10.1021/acs.jced.8b00595).

Details: 101.3 kPa, Liquid; for viscosity: Concentric cylinders viscometry; for mass density: Vibrating tube method

COC(C)(C)C [2-methoxy-2-methylpropane]
Details | mass density [kg/m3] | viscosity [mPa·s]
273.15 K | 761.3 | 0.495
288.15 K | 745.9 | 0.421
298.15 K | 735 | 0.381
308.15 K | 724.6 | 0.328
